Legend:
HEK-293 mock cells = assay: Control in mock-transfected HEK-293 cells (cAMP, ERK phosphorylation); format: cell-based, human
Experimental: ERK phosphorylation was monitored by western blotting after treatment of cells with 10 μM of ligands at different times ranging from 2 to 60 minutes. […] The kinetics of ERK phosphorylation elicited by 5-CT, Serodolin and MOA-51 were very similar: activation was fast and transient, and reached a pick between 2 and 7 minutes after drug exposure. However, ERK phosphorylation-induced by Serodolin and MOA-51 was more protracted compared to 5-CT, the reference agonist.

mice = assay: Acetic acid-induced writhing test; format: in vivo
Experimental: (§1) FIG. 9: Analgesic effect of Serodolin in the acetic acid-induced writhing test. In this test, nociception was induced by an intraperitoneally injection (ip) of 0.1 ml/10 g acid acetic solution (10 ml/kg) in peripheral origin. Serodolin at increasing dosage was administrated by oral (po), intravenous (iv) or subcutaneous (sc) route before acid acetic injection (upper panel). Positive control animals were pretreated morphine (3 mg/kg, sc) 10 minutes before acetic acid. Five minutes after i.p. injection of acetic acid the number of writhing was recorded for 10 minutes. Data mean±SEM of values obtained from a representative experiment (n=10 animals/group). ****p<0.0001 ***p<0.001 **p<0.01 *p<0.05 as compared with the control group (Vh).
as §1, with “16:” for “9:”, “MOA51” for “Serodolin”, “i.p.injection” for “i.p. injection”, “animals/group).” for “animals/group). ****p<0.0001 ***p<0.001”, “**p<0.01” for “**p<0.01 *p<0.05”
Writhing tests: Mice (25-35 g). Groups of mice (n=10) received by oral, subcutaneous or intravenous route Serodolin at different doses (0.1-10 mg/kg) one hour before intraperitoneally injection of 1% acetic acid in a volume of 10 ml/kg. Control group received vehicle (10 ml/kg, solution of 20% DMSO and 5% tween 80). The test was carried out 5 minutes later after acid acetic injection. The characteristic writhing responses have been observed individually and counted for 10 minutes.
Analgesic activity was first evaluated using the acetic acid abdominal constriction test (writhing test), a chemical model of visceral pain. We evaluated the dose-response effect of Serodolin following single oral, intravenous and subcutaneous administration of the compound one hour before injection of acetic acid.
Analgesic activity was evaluated using the acetic acid abdominal constriction test (writhing test), a chemical model of visceral pain. We evaluated the dose-response effect of MOA51 following single oral, intravenous and subcutaneous administration of the compound one hour before injection of acetic acid. MOA51 administered by the oral route induced statistically significant dose-dependent decreases in the number of writhings at and above the dose of 1 mg/kg. By the intravenous route, MOA51 induced dose-dependent decreases in the number of writhings at and above the dose of 0.1 mg/kg.

mouse = assay: Effect on body temperature; format: in vivo
Description: FIG. 13: Evaluation of the effect of Serodolin on body temperature.
FIG. 17: Evaluation of the effect of MOA51 on body temperature. Results expressed in ° C.
The time course of the effect of Serodolin on the body temperature has been evaluated in the mouse following intravenous administration.

Sprague-Dawley male rats = assay: Formalin induced inflammatory pain model; format: in vivo; settings: single s.c., Serodolin 10 mg/kg, MOA51 1 mg/kg, morphine
Experimental: FIG. 18: Effect of a single administration of Serodolin (AIC01) or MOA51 in the formalin test in rats. Effect of a single subcutaneous administration of Serodolin (AIC01) or MOA51 in the formalin test in rats. In this test, Sprague-Dawley male rats received unilateral injection of a 2.5% formalin solution (50 μl) into the plantar aspect of the hindpaw on testing day (i.e. D0). Control group received Vehicle (20% DMSO/5% Tween 80/NaCl). Serodolin was subcutaneously (sc) administrated at 10 mg/kg and MOA51 at 1 mg/kg. Positive control animals were treated with morphine (3 mg/kg, sc). Paw licking time was measured. Results are expressed as mean±s.e.m. Percentage are expressed as decreased as compared to the vehicle-treated group and represented as figure (B). ***: p<0.001 as compared to the vehicle-treated group, Bonferroni's test after significant Two-way Repeated Measures ANOVA. NS: Non-significant.
Sprague-Dawley male rats (n=10 rats per group) received unilateral injection of a 2.5% formalin solution (50 μl) into the plantar aspect of the hindpaw on testing day (i.e. D0). Experience was separated into 4 groups of animals. Formalin animals+vehicle-treated group; […]—Formalin animals+Sponsor's Serodolin (10 mg/kg), s.c.—Formalin animals+Sponsor's MOA51 (1 mg/kg), s.c.—Formalin animals+internal validator-treated group (Morphine at 4 mg/Kg, s.c.). Single subcutaneous administration of the Vehicle and Sponsor's Compound 30 min (or other timing depending on Sponsor's design) before formalin injection on testing day (i.e. D0)/Subcutaneous administration of Morphine 30 min before formalin injection on testing day (i.e. D0). Hindpaw licking time recorded in consecutive 5 minutes periods from 0 to 5 minutes (early phase) and 17 to 27 minutes (late phase) after formalin injection.
We evaluated the effect of Serodolin as well as MOA51 in rats in the formalin test, an acute and tonic pain model based on the use of a chemical stimulus. Subcutaneous injection of formalin into the right hindpaw produces a biphasic painful response of increasing and decreasing intensity for about 30 minutes after the injection. […] Although not significant, Serodolin, MOA51 and morphine have an inhibitory effect (−40%, −35% and −57% respectively) during the early phase.

C57BL/6 mice = assay: Spared Nerve Injury (SNI) neuropathic pain model, Von Frey; settings: s.c.
Experimental: Pregabalin, vehicle or compounds solutions are subcutaneously administrated for 8 consecutive days. • (A) Mechanical response threshold after the first administration (D+10). […] Positive control animals were treated with Pregabalin (5 mg/kg, sc). Statistical differences are indicated compared to vehicle group (Two-way RM ANOVA followed by Bonferroni post-hoc test: ***p<0.001, ** p<0.01, * p<0.05). […] Positive control animals were treated with Pregabalin (5 mg/kg, sc). Statistical differences are indicated compared to vehicle group (Two-way RM ANOVA followed by Bonferroni post-hoc test: ***p<0.001, ** p<0.01, * p<0.05). […] (Two-way RM ANOVA followed by Bonferroni post-hoc test: ***p<0.001, ** p<0.01, * p<0.05)
MOA51 and Serodolin (AIC01) compounds were diluted in NDT solution (NaCl 0.9%—DMSO 20%—Tween80 5%). […] AIC01 was resuspended at 0.5 mg/mL and administrated at a ratio of 100 μl per 10 g (dose of 5 mg/kg).
Experiment starts with 8 weeks old male C57B16J mice (from Charles River). Study was performed on 40 mice (2 mice were excluded during the study due to health guidelines) divided in 4 randomized groups. • Group A: s.c. injection at 5 mg/kg of pregabalin. • Group B: s.c. injection at 0.5 mg/kg of MOA51. • Group C: s.c. injection at 5 mg/kg of Serodolin (AIC01). • Group D: s.c. injection of NDT solution (referred as Vehicle hereafter).
Compounds solutions, pregabalin and vehicle were subcutaneously administrated (100 μl/10 g) for 9 consecutive days, starting 10 days after surgery. Ligature and transection of the common peroneal and tibial distal branches of the sciatic nerve was made leaving the sural branch intact. 7 days post-surgery, a decrease of threshold response to Von Frey filaments of ipsilateral hind-paw was observed corresponding to neuropathic pain apparition (mechanical allodynia). Mechanical threshold response of mice were measured with calibrated Von Frey filaments using the up/down method. Experimenter was blind to mice treatment. Measures are performed as follow: one baseline measure before surgery, one measure at D+10, D+12, D+14, D+16 and D+18 before drug's administration, and 1 h, 2 h post-drug administration. A supplementary measure 4 h post-drug administration was performed at D+10 and D+18.
Two-way RM ANOVA (followed by Bonferroni post-hoc test) was used to analysed time course response at D+10 and D+18. Area under the curve was determined with the 1 h and 2 h post-drug administration measures to investigated tolerance of repeated administration of compounds

O=C(c1ccc(F)cc1)C1CCN(Cn2c(=O)[nH]c3ccccc32)CC1 [MOA51]
ERK phosphorylation in HEK-293 mock cells (HEK-293 mock cells): neither Serodolin, nor MOA-51 were able to induce ERK phosphorylation
writhings at the top dose, intravenous route (mice; 10 mg/kg, intravenous): no further acetic acid-induced writhings were observed
dose giving decrease in number of writhings, intravenous route (mice; intravenous, one hour before acetic acid): ≥ 0.1 mg/kg
dose giving significant decrease in number of writhings, oral route (mice; oral, one hour before acetic acid): ≥ 1 mg/kg
dose giving significant decrease in number of writhings, subcutaneous route (mice; s.c., one hour before acetic acid): ≥ 1 mg/kg
writhings at the top dose, subcutaneous route (mice; top dose, subcutaneous): absence of acetic acid-induced writhings
decrease in body temperature, Emax (mouse; 0.1 mg/kg, at 30 min, not statistically significant): −2.3 °C
decrease in body temperature, Emax (mouse; 0.3 mg/kg, at 30 min): −5.4 °C
decrease in body temperature, Emax (mouse; 1 mg/kg, at 180 min): −7.2 °C
inhibitory effect on paw licking, early phase (Sprague-Dawley male rats; 0 to 5 minutes, not significant): −35%
inhibition of licking, late phase (Sprague-Dawley male rats; 17 to 27 minutes): −78%
tolerance after repetitive administration (AUC) (C57BL/6 mice; 9 consecutive days): didn't present any tolerance effect after repetitive administration
mechanical response threshold vs vehicle (C57BL/6 mice; first (D+10) and last (D+18) administration, 1 h and 2 h): significant increase in the mechanical threshold response
